Among the test systems are KM12; HOP-62; TK-10; HOP-92; OVCAR-4; SF-295; OVCAR-5; NCI/ADR-RES; LOX IMVI; A498; SK-OV-3; HCT-15; RXF 393; ACHN; UACC-257; Hs-578T; OVCAR-3; SNB-19; SF-268.
What all share (assay): inhibition of tumour cell growth, NCI panel, 48 h

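Growth conditions: 96-well plates. Treatment: test compound, 48 hours, 5 concentrations. Analysis: linear interpolation between bracketing concentrations; unreached endpoints set to highest concentration. Abbreviation: GI50, concentration required for 50% inhibition of growth.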 Active and inactive are the calls of the source. Cut-off read from the data, not from the text of the source: active = GI50 up to about 1.1 µM and inactive = higher.

Consider `C[C@H]1CC[C@]2(NC1)O[C@H]1C[C@H]3[C@@H]4CC[C@H]5C[C@@H](O[C@@H]6O[C@H](CO)[C@H](O[C@@H]7O[C@H](CO)[C@@H](O)[C@H](O[C@@H]8OC[C@@H](O)[C@H](O)[C@H]8O)[C@H]7O[C@@H]7O[C@H](CO)[C@@H](O)[C@H](O)[C@H]7O)[C@H](O)[C@H]6O)CC[C@]5(C)[C@H]4CC[C@]3(C)[C@H]1[C@@H]2C` [TOMATINE], for which the GI50 is 1.98 µM (inactive) with KM12; 1.63 µM (inactive) in the assay with HOP-62; 1.54 µM (inactive) in the assay with TK-10; 1.99 µM (inactive) in the assay on HOP-92; 1.39 µM (inactive) in the assay on OVCAR-4; 1.05 µM (active) in the assay on SF-295. The GI50 in the assay with OVCAR-5 is 1.24 µM (inactive); in the assay with NCI/ADR-RES, 1.9 µM (inactive); in the assay with LOX IMVI it was 2.17 µM (inactive); in the assay with A498, 1.87 µM (inactive); with SK-OV-3, 1.61 µM (inactive); in the assay with HCT-15, 2.48 µM. Also, the GI50 in the assay on RXF 393 is 1.8 µM (inactive); in the assay with ACHN it was 1.71 µM (inactive); in the assay on UACC-257 it was 2.12 µM (inactive); with Hs-578T, 1.64 µM (inactive); in the assay with OVCAR-3, 2.03 µM (inactive); with SNB-19, 1.24 µM (inactive). The GI50 in the assay with SF-268 is 1.55 µM (inactive).

With `CC(=O)NNc1nc(C)c(C(/C=C/c2ccccc2O)=N/NC(=O)c2ccncc2)s1`, the GI50 in the assay with KM12, with HOP-62, with TK-10, in the assay on HOP-92, in the assay on OVCAR-4 and in the assay with SF-295 was > 100 µM (inactive) in each case. Moreover, the GI50 was > 100 µM (inactive) with OVCAR-5; > 100 µM (inactive) with NCI/ADR-RES; > 100 µM (inactive) in the assay with LOX IMVI; > 100 µM (inactive) in the assay on A498; > 100 µM (inactive) in the assay with SK-OV-3; more than 100 µM in the assay on HCT-15. In addition, the GI50 in the assay on RXF 393, with ACHN, with UACC-257, in the assay on Hs-578T, in the assay with OVCAR-3 and in the assay on SNB-19 was > 100 µM (inactive) each time. In the assay with SF-268, the GI50 is > 100 µM (inactive).

Regarding `CCCC(=O)OCC1(CO)C/C(=C/CC(C(C)C)C(C)C)C(=O)O1` (stereo not given), the GI50 is 44.5 µM (inactive) with KM12; > 100 µM (inactive) in the assay on HOP-62; > 100 µM (inactive) in the assay with TK-10; 97.7 µM (inactive) with HOP-92; > 100 µM (inactive) with OVCAR-4; > 100 µM (inactive) with SF-295. Also, the GI50 is > 100 µM (inactive) in the assay on OVCAR-5; > 100 µM (inactive) in the assay with NCI/ADR-RES; 17.4 µM (inactive) in the assay on LOX IMVI; > 100 µM (inactive) in the assay on A498; > 100 µM (inactive) with SK-OV-3; more than 100 µM with HCT-15. The GI50 with RXF 393, in the assay with ACHN, with UACC-257, in the assay with Hs-578T, in the assay with OVCAR-3 and in the assay on SNB-19 was > 100 µM (inactive) throughout. For the same molecule, the GI50 in the assay with SF-268 is > 100 µM (inactive).

In the case of `CCOC(=O)C(NC(=O)CC(C)C)(Nc1ccc(S(=O)(=O)Nc2nc(C)cc(C)n2)cc1)C(F)(F)F` (stereo not given), the GI50 in the assay with KM12, with HOP-62, with TK-10, with HOP-92, in the assay on OVCAR-4 and in the assay on SF-295 was > 100 µM (inactive) in each case. The GI50 with OVCAR-5 was > 100 µM (inactive); with NCI/ADR-RES, > 100 µM (inactive); with LOX IMVI it was > 100 µM (inactive); in the assay with A498, > 100 µM (inactive); in the assay with SK-OV-3 it was > 100 µM (inactive); in the assay with HCT-15, more than 100 µM. For the same molecule, the GI50 in the assay on RXF 393, in the assay on ACHN, with UACC-257, in the assay on Hs-578T, with OVCAR-3 and with SNB-19 was > 100 µM (inactive) each time. The GI50 with SF-268 was > 100 µM (inactive).

As to `C=CCN1C(=O)/C(=C/c2ccc(Cl)cc2)N=C1SC/C=C/C`, the GI50 with KM12 is 32.3 µM (inactive); with HOP-62, > 100 µM (inactive); in the assay with TK-10 it was > 100 µM (inactive); with HOP-92, 24.2 µM (inactive); in the assay on OVCAR-4, 29.2 µM (inactive); with SF-295, 46.9 µM (inactive). Further, the GI50 with OVCAR-5 is 37.8 µM (inactive); in the assay with NCI/ADR-RES, 35.2 µM (inactive); with LOX IMVI, 34 µM (inactive); in the assay on A498 it was 33.9 µM (inactive); in the assay on SK-OV-3, > 100 µM (inactive); in the assay with HCT-15 it was 34.2 µM. The GI50 was 15.7 µM (inactive) with RXF 393; 56.2 µM (inactive) in the assay on ACHN; 37.8 µM (inactive) with UACC-257; 37.7 µM (inactive) in the assay with Hs-578T; 44.6 µM (inactive) in the assay with OVCAR-3; 22.9 µM (inactive) with SNB-19. In addition, the GI50 in the assay on SF-268 was 48.3 µM (inactive).

For the molecule `C/C(Cc1ccc2c(c1)OCO2)=N\NC(=O)C(C)Sc1nnc(SC(C)C(=O)N/N=C(\C)Cc2ccc3c(c2)OCO3)s1` (stereo not given), the GI50 in the assay on KM12 is > 100 µM (inactive); in the assay on HOP-62, > 100 µM (inactive); in the assay with TK-10, > 100 µM (inactive); in the assay on HOP-92, 61.1 µM (inactive); with OVCAR-4 it was > 100 µM (inactive); with SF-295, > 100 µM (inactive). For the same molecule, the GI50 with OVCAR-5 is > 100 µM (inactive); in the assay on NCI/ADR-RES it was > 100 µM (inactive); in the assay on LOX IMVI, > 100 µM (inactive); in the assay with A498, 62.4 µM (inactive); with SK-OV-3, > 100 µM (inactive); in the assay on HCT-15 it was more than 100 µM. For the same molecule, the GI50 in the assay with RXF 393, in the assay with ACHN, in the assay with UACC-257, in the assay on Hs-578T, with OVCAR-3 and with SNB-19 was > 100 µM (inactive) each time. In the assay on SF-268, the GI50 is > 100 µM (inactive).

As to `Cn1c(=O)c2nc(CCS)[nH]c2n(C)c1=O`, the GI50 in the assay with KM12 was > 100 µM (inactive); in the assay with HOP-62, 54.3 µM (inactive); in the assay with TK-10, 50.2 µM (inactive); with HOP-92, > 100 µM (inactive); in the assay with OVCAR-4, > 100 µM (inactive); in the assay with SF-295, > 100 µM (inactive). Also, the GI50 is > 100 µM (inactive) with OVCAR-5; > 100 µM (inactive) with NCI/ADR-RES; > 100 µM (inactive) in the assay with LOX IMVI; > 100 µM (inactive) with A498; 68.1 µM (inactive) in the assay on SK-OV-3; more than 100 µM with HCT-15. For the same molecule, the GI50 in the assay with RXF 393 is 90.6 µM (inactive); in the assay with ACHN, > 100 µM (inactive); with UACC-257 it was > 100 µM (inactive); in the assay with Hs-578T it was 31.4 µM (inactive); in the assay with OVCAR-3 it was > 100 µM (inactive); in the assay with SNB-19 it was > 100 µM (inactive). The GI50 in the assay with SF-268 was 35.6 µM (inactive).

As to `CCC(CCCC[C@H]1CC[C@@H]2CC(=O)C[C@H]12)OC` (stereo not given in full), the GI50 in the assay with KM12, in the assay with HOP-62, in the assay on TK-10, with HOP-92, in the assay on OVCAR-4 and in the assay with SF-295 was > 100 µM (inactive) throughout. The GI50 was > 100 µM (inactive) in the assay with OVCAR-5; 66.5 µM (inactive) with NCI/ADR-RES; > 100 µM (inactive) in the assay with LOX IMVI; > 100 µM (inactive) in the assay on A498; > 100 µM (inactive) in the assay on SK-OV-3; more than 100 µM in the assay with HCT-15. In addition, the GI50 in the assay with RXF 393 is > 100 µM (inactive); in the assay on ACHN, > 100 µM (inactive); in the assay on UACC-257, 46.5 µM (inactive); in the assay with Hs-578T it was > 100 µM (inactive); with OVCAR-3, > 100 µM (inactive); in the assay with SNB-19, > 100 µM (inactive). For the same molecule, in the assay with SF-268, the GI50 was > 100 µM (inactive).

`COc1cc(Br)cc2nc(-c3cccs3)oc12`: the GI50 in the assay with KM12 was > 100 µM (inactive); in the assay with HOP-62, 24.5 µM (inactive); in the assay with TK-10, 31.8 µM (inactive); with HOP-92, > 63.5 µM (inactive); in the assay with OVCAR-4, > 26.9 µM (inactive); in the assay on SF-295 it was 55.7 µM (inactive). The GI50 with OVCAR-5 was > 100 µM (inactive); with NCI/ADR-RES, > 100 µM (inactive); in the assay with LOX IMVI, > 100 µM (inactive); with A498, > 55.3 µM (inactive); in the assay with SK-OV-3 it was > 90.6 µM (inactive); with HCT-15, 16.2 µM. Also, the GI50 with RXF 393 was 45.6 µM (inactive); with ACHN, > 83.8 µM (inactive); in the assay with UACC-257, > 100 µM (inactive); in the assay with Hs-578T, 31.3 µM (inactive); in the assay with OVCAR-3 it was > 100 µM (inactive); in the assay with SNB-19, > 83 µM (inactive). Further, in the assay with SF-268, the GI50 was > 62.4 µM (inactive).

As to `Nc1cc(C(=O)O)nc(O)n1`, the GI50 with KM12, in the assay with HOP-62, with TK-10, in the assay with HOP-92, in the assay on OVCAR-4 and in the assay on SF-295 was > 100 µM (inactive) each time. In addition, the GI50 in the assay on OVCAR-5 is > 100 µM (inactive); in the assay with NCI/ADR-RES it was > 100 µM (inactive); with LOX IMVI, > 100 µM (inactive); with A498, > 100 µM (inactive); in the assay on SK-OV-3, > 100 µM (inactive); in the assay with HCT-15, more than 100 µM. Also, the GI50 in the assay with RXF 393, in the assay on ACHN, with UACC-257, in the assay with Hs-578T, in the assay with OVCAR-3 and in the assay with SNB-19 was > 100 µM (inactive) throughout. Further, the GI50 with SF-268 is > 100 µM (inactive).
